Patent US6682925B1, “Streptomyces strain with insecticidal activity and method of using as an insecticide” (priority 2000, dated 2004)

Columns and labels:
Format in all cases: cell-based
Design in all cases: key: 5: five indicated growth equal to the water control; 1: a rating of one indicated the complete absence of growth; Index values two (2) through four (4) represent intermediate levels of sporulation and growth; 3: Index values two (2) through four (4) represent intermediate levels of sporulation and growth; Index values two (2) through four (4) represent intermediate levels of sporulation and growth; zero (0) indicates a failed or unnecessary test
Details in all cases: chemical control, all independent replicated tests
Alternaria brassisicola = experiment: agar overlay plant pathogen growth assay, ABRA
Protocol: (§1) The novel Streptomyces galbus strain was grown for testing against plant pathogens in the following manner. The isolated microbe was initially fermented in three distinct actinomycete cultivation media. Media 38 was composed of 2 g/L tomato paste, 2 g/L oat flour, and 1.0 g/L sea salts. Media 31 was composed of 45 g/L oat flour, 2 g/L yeast extract, 6 g/L KH2PO4, and 4.8 g/L Na2HPO4, pH 7. Media 6 was composed of 20 g/L soluble starch, 10 g/L dextrose, 5 g/L yeast extract, 5 g/L N-Z amineA, and 1 g/L CaCO3.
(§2) The microbe was picked from tomato-oat flour agar (2 g/L tomato paste, 2 g/L oat flour, and 20 g/L agar) and introduced to 50 ml conical tubes containing 12 ml of sterile fermentation media capped with a foam plug. The inoculated tubes were incubated at 27±3° C., in an orbital shaker for six days. […]
(§3) The following pathogen/chemical pairs were tested: Alternaria brassisicola (ABRA Benomyl), Botrytris cinerea (BOTC/Benomyl), Monilinuafructicola (MONF/Benomyl), Phytophthora capsici (PCAP/Metalaxyl), Pseudomonas syringae (PSTO/Gentamycin), and Colletotrichum coccoides (COLC/Chlorothalonil). […] The chemical controls scored index ratings of one (1) in all of the independent replicated tests; and media blanks had ratings of five (5).

Botrytris cinerea = experiment: agar overlay plant pathogen growth assay, BOTC
Protocol: as §1, §2, §3

Monilinuafructicola = experiment: agar overlay plant pathogen growth assay, MONF
Protocol: as §1, §2, §3

Colletotrichum coccoides = experiment: agar overlay plant pathogen growth assay, COLC
Protocol: as §1, §2, §3

Phytophthora capsici = experiment: agar overlay plant pathogen growth assay, PCAP
Protocol: as §1, §2, §3

Pseudomonas syringae = experiment: agar overlay plant pathogen growth assay, PSTO
Protocol: as §1, §2, §3

Compound: CCCCNC(=O)n1c(NC(=O)OC)nc2ccccc21 [Benomyl]
- ABRA pathogen growth index rating (Alternaria brassisicola): 1
- BOTC pathogen growth index rating (Botrytris cinerea): 1
- MONF pathogen growth index rating (Monilinuafructicola): 1

Compound: N#Cc1c(Cl)c(Cl)c(Cl)c(C#N)c1Cl [Chlorothalonil]
- COLC pathogen growth index rating (Colletotrichum coccoides): 1

Compound: COCC(=O)N(c1c(C)cccc1C)C(C)C(=O)OC (stereo not drawn) [Metalaxyl]
- PCAP pathogen growth index rating (Phytophthora capsici): 1

Compound: Gentamycin
- PSTO pathogen growth index rating (Pseudomonas syringae): 1
